Test results reported in ChEMBL document CHEMBL1201862, “PubChem BioAssay data set” (2004).
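Dose response: 5 concentrations. Exposure: 48 h. Format: 96-well plates. Endpoint: linear interpolation; highest concentration if not reached. At the GI50, growth is halved.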 Activity calls are given as the source filed them. Cut-off read from the data, not from the text of the source: active = GI50 up to about 1.1 µM and inactive = higher. Where a SMILES comes first, the peptide text is derived from it. [ ]: non-standard residue; d: D form. The star is where a group is joined. Phe(4-NO2) = N[CH](Cc1ccc([N+](=O)[O-])cc1)C(=O)O; Cbz = O=C(OCc1ccccc1)*

How the values were obtained:
Experiment in all cases: NCI-60 cell line screen, 48 h
786-0 = system: 786-0
BT-549 = system: BT-549
CAKI-1 = system: CAKI-1
COLO 205 = system: COLO 205
DU-145 = system: DU-145
HOP-62 = system: HOP-62
HT-29 = system: HT-29
Hs-578T = system: Hs-578T
M14 = system: M14
MDA-MB-231 = system: MDA-MB-231
Malme-3M = system: Malme-3M
NCI-H460 = system: NCI-H460
OVCAR-5 = system: OVCAR-5
OVCAR-8 = system: OVCAR-8
SF-295 = system: SF-295
SK-MEL-2 = system: SK-MEL-2
SW-620 = system: SW-620
UO-31 = system: UO-31
CCRF-CEM = system: CCRF-CEM
HL-60 = system: HL-60

Measured: GI50

Cc1ccc(/C(C#N)=C/c2cccc([N+](=O)[O-])c2)cc1
inactive: 786-0 31.8 µM | BT-549 > 100 µM | CAKI-1 > 100 µM | COLO 205 > 100 µM | DU-145 98.6 µM | HOP-62 38.1 µM | HT-29 > 100 µM | Hs-578T 27.4 µM | M14 > 100 µM | MDA-MB-231 19.2 µM | Malme-3M > 100 µM | NCI-H460 > 100 µM | OVCAR-5 > 100 µM | OVCAR-8 59.2 µM | SF-295 24.4 µM | SK-MEL-2 51.9 µM | SW-620 > 100 µM | UO-31 45.3 µM

CC(CCC(=O)O)(c1ccc(O)cc1)c1ccc(O)cc1
inactive: 786-0 > 100 µM | BT-549 > 100 µM | CAKI-1 > 100 µM | DU-145 > 100 µM | HOP-62 > 100 µM | HT-29 > 100 µM | Hs-578T > 100 µM | M14 > 100 µM | MDA-MB-231 > 100 µM | Malme-3M > 100 µM | NCI-H460 > 100 µM | OVCAR-5 > 100 µM | OVCAR-8 > 100 µM | SF-295 > 100 µM | SK-MEL-2 > 100 µM | SW-620 > 100 µM | UO-31 > 100 µM

COc1cc(C(=O)O)c([N+](=O)[O-])c(OC)c1OC
inactive: 786-0 > 100 µM | BT-549 > 100 µM | CAKI-1 > 100 µM | COLO 205 > 100 µM | DU-145 > 100 µM | HOP-62 > 100 µM | HT-29 > 100 µM | Hs-578T > 100 µM | M14 > 100 µM | MDA-MB-231 > 100 µM | Malme-3M > 100 µM | NCI-H460 > 100 µM | OVCAR-5 63.2 µM | OVCAR-8 > 100 µM | SF-295 > 100 µM | SK-MEL-2 > 100 µM | SW-620 > 100 µM | UO-31 > 100 µM

OCCCCn1cc(Cn2ncc3c(O)ncnc32)nn1
inactive: 786-0 > 100 µM | BT-549 > 100 µM | CAKI-1 > 100 µM | CCRF-CEM > 100 µM | COLO 205 > 100 µM | DU-145 > 100 µM | HOP-62 > 100 µM | HT-29 > 100 µM | Hs-578T > 100 µM | M14 > 100 µM | MDA-MB-231 > 100 µM | Malme-3M > 100 µM | NCI-H460 > 100 µM | OVCAR-5 > 100 µM | OVCAR-8 > 100 µM | SF-295 > 100 µM | SK-MEL-2 > 100 µM | SW-620 > 100 µM | UO-31 > 100 µM

O=C1CC(=O)NC(NN2C(=O)CSC2C(=O)c2ccco2)=N1 (stereo unspecified)
inactive: 786-0 > 100 µM | BT-549 > 100 µM | CAKI-1 > 100 µM | CCRF-CEM > 100 µM | COLO 205 > 100 µM | DU-145 > 100 µM | HOP-62 > 100 µM | HT-29 > 100 µM | Hs-578T > 100 µM | M14 > 100 µM | MDA-MB-231 > 100 µM | Malme-3M > 100 µM | NCI-H460 > 100 µM | OVCAR-5 > 100 µM | OVCAR-8 > 100 µM | SF-295 78.7 µM | SK-MEL-2 > 100 µM | SW-620 > 100 µM | UO-31 > 100 µM

COC1(OC)C2(Cl)CCC1(Cl)C(OC(C)=O)C2 (stereo unspecified)
inactive: 786-0 > 100 µM | BT-549 > 100 µM | CAKI-1 > 100 µM | CCRF-CEM > 100 µM | COLO 205 > 100 µM | DU-145 > 100 µM | HOP-62 > 100 µM | HT-29 > 100 µM | Hs-578T > 100 µM | M14 > 100 µM | MDA-MB-231 > 100 µM | Malme-3M > 100 µM | NCI-H460 > 100 µM | OVCAR-5 > 100 µM | OVCAR-8 > 100 µM | SF-295 > 100 µM | SK-MEL-2 > 100 µM | SW-620 > 100 µM | UO-31 > 100 µM

COc1ccc(OC)c2c(=O)cc(-c3ccccc3)[nH]c12
inactive: 786-0 > 100 µM | BT-549 > 100 µM | CCRF-CEM > 100 µM | COLO 205 > 100 µM | DU-145 > 100 µM | HL-60 > 100 µM | HOP-62 > 100 µM | HT-29 > 100 µM | Hs-578T > 100 µM | M14 > 100 µM | MDA-MB-231 > 100 µM | Malme-3M > 100 µM | NCI-H460 > 100 µM | OVCAR-5 > 100 µM | OVCAR-8 > 100 µM | SF-295 > 100 µM | SK-MEL-2 > 100 µM | SW-620 > 100 µM | UO-31 > 100 µM

CCOC1NC(=O)Oc2cc3ccccc3cc21 (stereo unspecified)
inactive: 786-0 > 100 µM | BT-549 44.1 µM | CCRF-CEM 36.5 µM | COLO 205 > 100 µM | DU-145 > 100 µM | HL-60 31.3 µM | HOP-62 > 100 µM | HT-29 > 100 µM | Hs-578T > 100 µM | M14 39 µM | MDA-MB-231 > 100 µM | Malme-3M > 100 µM | NCI-H460 > 100 µM | OVCAR-5 > 100 µM | OVCAR-8 48.6 µM | SF-295 > 100 µM | SW-620 > 100 µM | UO-31 > 100 µM

COC(=O)OC[C@H]1O[C@@H](n2cc(C)c(=O)[nH]c2=O)CC1OC(=O)OC (stereo partly specified)
inactive: 786-0 > 100 µM | BT-549 > 100 µM | CCRF-CEM > 100 µM | COLO 205 > 100 µM | DU-145 > 100 µM | HL-60 > 100 µM | HOP-62 > 100 µM | HT-29 > 100 µM | Hs-578T > 100 µM | M14 > 100 µM | MDA-MB-231 > 100 µM | Malme-3M > 100 µM | NCI-H460 > 100 µM | OVCAR-5 > 100 µM | OVCAR-8 > 100 µM | SF-295 > 100 µM | SK-MEL-2 > 100 µM | SW-620 > 100 µM | UO-31 > 100 µM

Nc1ccc(-c2nc3ccc(F)cc3s2)cc1Cl
inactive: 786-0 > 61.1 µM | BT-549 > 70.6 µM | CAKI-1 > 78.5 µM | CCRF-CEM 5.57 µM | COLO 205 > 100 µM | DU-145 > 100 µM | HOP-62 26.9 µM | HT-29 52.7 µM | Hs-578T 32.9 µM | M14 > 100 µM | MDA-MB-231 > 55.3 µM | Malme-3M > 100 µM | OVCAR-8 > 65.5 µM | SF-295 > 47.1 µM | SK-MEL-2 > 84.1 µM | SW-620 > 100 µM | UO-31 > 100 µM

CCOC(=O)CCC(NC(=O)OCc1ccccc1)C(=O)NC(CCC(=O)OCC)C(=O)NC(Cc1ccc([N+](=O)[O-])cc1)C(=O)NC(CCC(=O)OCC)C(=O)NC(CCC(=O)OCC)C(=O)OCC (stereo unspecified) (Cbz-E(OEt)E(OEt)[Phe(4-NO2)]E(OEt)E(OEt)-OEt; configuration not given here)
inactive: 786-0 > 100 µM | BT-549 > 100 µM | CAKI-1 > 100 µM | CCRF-CEM > 100 µM | COLO 205 > 100 µM | DU-145 > 100 µM | HOP-62 > 100 µM | HT-29 > 100 µM | Hs-578T > 100 µM | MDA-MB-231 > 100 µM | Malme-3M > 100 µM | NCI-H460 > 100 µM | OVCAR-5 > 100 µM | OVCAR-8 > 100 µM | SF-295 > 100 µM | SK-MEL-2 > 100 µM | SW-620 > 100 µM | UO-31 > 100 µM
